Assay results as given in patent US20050170394A1 (priority 2004, published 2005).

Target: T1, GLUT1 (Homo sapiens, UniProt P11166)
T1 sequence (P11166 1-492): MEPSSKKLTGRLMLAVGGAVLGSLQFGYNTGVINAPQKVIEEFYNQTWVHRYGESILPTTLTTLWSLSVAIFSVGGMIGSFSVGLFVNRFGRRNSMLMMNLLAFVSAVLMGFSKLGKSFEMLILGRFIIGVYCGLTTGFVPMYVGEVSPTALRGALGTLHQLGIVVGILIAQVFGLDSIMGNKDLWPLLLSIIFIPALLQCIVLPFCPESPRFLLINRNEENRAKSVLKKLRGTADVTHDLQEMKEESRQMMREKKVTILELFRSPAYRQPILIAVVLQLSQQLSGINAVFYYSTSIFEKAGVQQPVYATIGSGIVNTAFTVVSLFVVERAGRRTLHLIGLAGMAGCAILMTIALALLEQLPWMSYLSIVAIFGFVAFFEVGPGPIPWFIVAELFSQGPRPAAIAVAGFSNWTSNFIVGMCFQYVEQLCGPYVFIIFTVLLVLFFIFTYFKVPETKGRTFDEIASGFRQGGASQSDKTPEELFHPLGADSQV
Assay: Uptake of 3H-glucose by GLUT1 expressed in Xenopus oocytes
Format: cell-based
Design: expressed in transfected cells; host or cells: Xenopus oocytes (defolliculated), injected with in vitro transcribed GLUT1 cRNA
Conditions: Xenopus oocytes injected with GLUT1 cRNA
Method: To assess transport function of a specific transporter protein, it can be desirable to clone the cDNA and express the protein in cells that have low endogenous transport activity. Human GLUT1 was cloned by PCR, fully sequenced, and subcloned into plasmids that can be used for expression in mammalian cells or Xenopus oocytes. […] For expression in Xenopus oocytes, in vitro GLUT1 cRNA was prepared and injected into defoliculated oocytes. […]

3H-glucose uptake versus noninjected controls	Compound
higher levels	O=C[C@H](O)[C@@H](O)[C@H](O)[C@H](O)CO [^3H-glucose]

Target: T1, GLUT1
Assay: not given
Conditions: substrates and inhibitors of GLUT1; cited from earlier work

Compound	Reported Affinity for GLUT1 [mM]
O=C1O[C@H]([C@@H](O)CO)C(=O)C1=O [Dehydroascorbic Acid]	0.8
O=C[C@H](O)[C@@H](O)[C@@H](O)[C@H](O)CO [Galactose]	4
N[C@H]1C(O)O[C@H](CO)[C@@H](O)[C@@H]1O (stereo partly shown) [Glucosamine]	9
O=C(CCc1ccc(O)cc1)c1c(O)cc(O)cc1O [Phloretin]	0.05
(S)-methoxy-a-methyl-2-napthalene acetic acid amido galacto pyranose	1
Fluorodeoxyglucose	4
